# “And” between values parts separate entries of the source, which are not always exact repeats. Identical values can stand only once.
# Assays:
# [1] = test system: insulin growth factor 1 (IGF-1); experiment: IGF-1 levels in secretomas of treated HFDPC; type: cell-based, human; conditions: 24 h and 48 h after treatment, data not shown
# Description: Secretomas (supernatants that could be recovered from the HFDPC cultures challenged with the tested materials of Table 1) were analysed for detecting the presence and levels of animal cell growth factors and of microRNAs associated with hair growth in dermal papilla. […] Similar results (at 24 and 48 h) were observed when analysing the levels of fibroblast growth factor 7 (FGF-7). Both growth factors are associated with the promotion of hair growth.
# [2] = test system: miRNA-31; experiment: miRNA-31 expression in secretomes of treated HFDPC; type: cell-based, human; conditions: in relation to the controls, FIG. 5(A),(C)
# Description: FIG. 5, related with Assay 1, is a graph showing the expression levels of miRNA-22 (FIG. 5(B)) and miRNA-31 (FIGS. 5(A) and (C)) in secretomas from HFDPC treated with either the peptide of SEQ ID NO: 6 or the cell-free supernatants of Curcuma longa.
# From these secretomes of HFDPC, also the levels of the microRNAs miRNA-31 and miRNA-22 were detected (FIG. 5).
# [3] = test system: human dermal fibroblasts (HDF); experiment: In vitro proliferation of human dermal fibroblasts (BrdU incorporation); type: cell-based; conditions: basal control = 100%
# Description: In order to further test the effects of the peptides of the invention in an additional setting, a proliferation assay was conducted onto human dermal fibroblasts (HDF).
# Normal Human Dermal Fibroblasts (HDF) were obtained from foreskin samples, surpluses from surgery of young donors (0-3 years old) and stablished by using the standard method of explants growth and enzymic dissociation of proliferating cells. Cells were propagated and grown in Growth Medium (GM): Dulbecco's 1 g/L glucose medium, supplemented with 10% foetal bovine serum (FBS, PAA); 2 mM L-glutamine (Lonza); and antibiotics (100 μg/ml Penicillin and 100 U/ml of Streptomycin, Lonza). For routine subcultivation and propagation of the primary culture, cells were washed twice with PBS ([…] buffered saline, pH 7.4), harvested with trypsin—EDTA (Gibco) and counted in Neubauer chamber before its seeding in a new cell culture flask (Falcon, 75 cm2).
# Test products were prepared at the defined final concentrations by its dilution in Maintenance Medium (Dulbecco's 1 g/L glucose medium, supplemented with 1% foetal bovine serum (FBS, PAA); 2 mM L-glutamine (Lonza); and antibiotics (100 μg/ml Penicillin and 100 U/ml of Streptomycin, Lonza), just before each application.
# HFD proliferation was assessed determining the proliferation index (%). Cell DNA replication was quantified by means of incorporated bromodeoxiuridine (BrdU) into DNA of treated cells. […] Cells being divided incorporated BrdU that is further detected by means of antibodies and immunocytochemistry detection. […]
# Data are depicted in FIG. 6 and FIG. 7, wherein it is shown the proliferation index (%) of HDF, calculated as the percentage of growing in relation to the basal control (non-treated HDF) which is accorded a 100% value of proliferation index. […]
# Data are depicted in FIG. 16, wherein it is shown the proliferation index (%) of HDF, calculated as the percentage of growing in relation to the basal control (non-treated HDF) which is accorded a 100% value of proliferation index.
# [4] = test system: males and females with hair-loss problems; experiment: In vivo test: combing test (number of hair lost during combing) in volunteers; set-up: species or system human
# Description: Curcuma longa cell-free supernatant prepared as indicated in Example 2, as well as the peptide of SEQ ID NO: 6 in the PBS buffered fortifying solution 2× disclosed in Example 1 were tested in males and females (n=60, from 18 to 60 years old) with hair-loss problems. There were excluded those volunteers that received a capillary treatment three months before the assay, volunteers with cutanic pathologies at scalp (psoriasis, dermatitis, etc.) and allergy to compounds in the formulations.
# Tested compounds were daily applied.
# At time 0 (T0) there were taken scalp pictures (frontal and occipital parts), trichograms for determining the hair phase cycle (telogen or anagen phase), the combing test (number of hair lost during combing), and capillary density by microphotography with Trichoscan®.
# At t=45 days and t=90 days, there were performed the combing test and the density tests (Trichoscan®)
# At t=150 days again as in t=0.
# Volunteers were separated in three groups. Group 1 receiving SEQ ID NO: 6 in the PBS buffered fortifying solution 2× disclosed in Example 1; Group 2 receiving Curcuma longa cell-free supernatant prepared as indicated in Example 2, and Group 3 the placebo.
# In particular, this table includes the average values determined for combing test (number of hair lost during combing). From the combing test results at t=0, t=45 and t=90 the percentage of reduction of hair loss is calculated contrasting values of t=0 with the values at t=45 and at t=90.
# [5] = test system: human dermal fibroblasts (HDF); experiment: Wound healing (scratch) assay on human dermal fibroblasts; type: cell-based; conditions: FIG. 17; 5 μg/ml and 0.05 μg/ml; 5 days of treatment; triplicate mean; vs 0.1% FBS basal, 10% FBS and TGF-β1 positive controls
# Description: In order to test the effect of the sulfaction state of the peptides on their activity, it is herewith provided as reference example a wound healing assay conducted onto human dermal fibroblasts (HDF).
# Human dermal fibroblasts were seeded in a 24-well plate and were grown to confluence. A 2 mm width scratch was done on the culture monolayer. Then the test products in culture medium were added and the cicatrisation process was followed by means of phase contrast microscopy. With this aim, photographs were taken at initial of the test (T=0 h) before the scratching and after the treatment (at 12 h and at 72 h). Cicatrisation process was evaluated by quantifying wound area reduction at each time.
# Data at the end of the test (5 days of treatment) are depicted in FIG. 17, wherein the wound healing potential is depicted as the Healed Area (in μm^2) for assayed peptide.
# The results derive from a triplicate test. Values of cicatrised area (or % of cicatrisation) are the mean values.
# [6] = group mean, combing test, minimal and maximal values not considered
# [7] = individual volunteers, negative = fewer hairs lost
substance,measurement,setting,value
"CH3—C(O)—YIYT-NH2 (Ac-YIYT-NH2) [SEQ ID NO: 6, in vivo: dissolved 0.025% w/w in PBS buffered fortifying solution 2×]",levels of insulin growth factor 1 (IGF-1),[1],higher levels were meaningful
same,expression index of miRNA-31,[2],increase of the expression index of miRNA-31
same,proliferation index of HDF,"[3]; Assay 5, FIG. 16, peptide, nutritive solution, or both in combination",can promote cell proliferation
same,proliferation index of HDF,"[3]; FIGS. 6 and 7, 4Aa at 25, 12.5, 1.25 μg/ml, 5Aa at 1.25, 0.63, 0.25 μg/ml",can promote cell proliferation of HDF
same,reduction of the % of hair loss (in words),"[4]; T45, T90 and T150 compared with T0",meaningful reduction of the % of hair loss
same,"% REDUCTION OF HAIR LOSS T0 vs. T150, Mean",[4]; [6],68.15%
same,"% hair-loss reduction t = 0 vs t = 45, mean",[4]; [6],40.48%
same,"% hair-loss reduction t = 0 vs t = 90, mean",[4]; [6],39.72%
same,COMBING TEST T45,"[4]; individual volunteers, number of hair lost during combing, day 45",7 and 54 and 23 and 13 and 88 and 184 and 34 and 58 and 60 and 62 and 50 and 10 and 31 and 28 and 101 and 66 and 24 and 14 and 46 and 92
same,COMBING TEST T90,"[4]; individual volunteers, number of hair lost during combing, day 90",6 and 88 and 28 (2×) and 36 and 154 and 60 and 50 and 61 and 84 and 27 and 12 and 45 and 118 and 91 and 23 and 22 and 59 and 62
same,COMBING TEST T150,"[4]; individual volunteers, number of hair lost during combing, day 150",5 and 13 (2×) and 19 (2×) and 22 and 24 and 18 and 12 and 20 (3×) and 23 and 29 and 95 and 42 and 167 and 16 and 36
same,% REDUCTION OF HAIR LOSS T0 VS. T45,[4]; [7],−86.27% and −55.74% and −46.51% and −69.05% and 72.55% and 183.08(*) % and −43.33% and −44.23% and −47.83% and −78.32% and −30.56% and −98.13(*) % and −36.73% and −68.54% and −31.29% and −67.00% and −22.58% and −64.10% and −42.50% and 33.33%
same,% REDUCTION OF HAIR LOSS T0 VS. T90,[4]; [7],−88.24% and −27.87% and −34.88% and −33.33% and −29.41% and 136.92(*) % and 0.00% and −51.92% and −46.96% and −70.63% and −62.50% and −97.76(*) % and −49.44% and −19.73% and −54.50% and −25.81% and −43.59% and −26.25% and −10.14%
same,% REDUCTION OF HAIR LOSS T0 vs. T150,[4]; [7],−90.20% and −89.34% and −69.77% and −54.76% and −56.86% and −63.08% and −70.00% and −88.46% and −82.61% and −91.96(*) % and −59.72% and −82.24% and −78.65% and −71.43% and −16.50% and −35.48(*) % and −58.97% and −55.00% and −71.01%
same,"wound healing potential, Healed Area",[5],independent of its sulfaction state
